Molecules are shown by their SMILES. Several values for one entry are separate records, joined by “and”; a condition that tells them apart may be missing. Equal entries are not always repeated.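 Growth conditions: 96-well plates. Treatment: test compound, 48 hours, 5 concentrations. Analysis: linear interpolation between bracketing concentrations; unreached endpoints set to highest concentration. The concentration for 50% growth inhibition is given as GI50. The concentration for full growth arrest is given as TGI.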

The source of these data is PubChem BioAssay (NCI).

Some test systems named below: ACHN renal; HS 578T breast; MDA-MB-231 breast; MDA-MB-435; NCI-H460 lung; OVCAR-3 ovarian; PC-3 prostate; SF-268 CNS; SNB-75 CNS; SR leukemia.
Experiment in all cases: growth of human tumour cells (NCI), 48 h

Turning to `COc1ccc2c(c1)C(=O)c1c-2c(OCCN(C)C)nc2cc(OC)c(OC)cc12`, the GI50 in the assay on ACHN renal is 5.21 µM; with HS 578T breast it was 12.8 µM; in the assay with MDA-MB-231 breast, 10.1 µM; with MDA-MB-435 it was 5.3 µM; in the assay with NCI-H460 lung it was 1.22 µM; with OVCAR-3 ovarian, 2.23 µM. The GI50 was 3.76 µM in the assay on PC-3 prostate, 0.731 µM in the assay on SF-268 CNS, 8.65 µM in the assay with SNB-75 CNS and 1.22 µM in the assay with SR leukemia. Also, the TGI with ACHN renal was 19.3 µM; in the assay on HS 578T breast, 35.7 µM; in the assay with MDA-MB-231 breast, 22.1 µM; with MDA-MB-435, above 100 µM; in the assay on NCI-H460 lung, 15.3 µM; in the assay with OVCAR-3 ovarian it was 15.1 µM. Further, the TGI is 65.9 µM in the assay on PC-3 prostate, 16.3 µM with SF-268 CNS, 26.1 µM with SNB-75 CNS and 14.4 µM with SR leukemia.

Consider `NCCCN=c1ccc2c3c1c(O)c1c(O)ccc(=O)c1c3[nH]n2CCNCCO`, for which the TGI in the assay with ACHN renal was 4.52 µM; with HS 578T breast, 4.8 µM; with MDA-MB-231 breast it was 12.3 µM and 25 µM; in the assay with MDA-MB-435 it was 15.4 µM; with NCI-H460 lung it was 3.66 µM and 15.7 µM; in the assay on OVCAR-3 ovarian, 17.4 µM and 22.5 µM. The TGI with PC-3 prostate is 15.6 µM and 68 µM; in the assay with SF-268 CNS it was 6.51 µM; with SNB-75 CNS it was 5.14 µM and 4.69 µM. The GI50 in the assay with HS 578T breast was 1.77 µM; in the assay with MDA-MB-231 breast, 2.43 µM; in the assay on NCI-H460 lung, 0.117 µM and 0.12 µM; with OVCAR-3 ovarian, 4.18 µM; with PC-3 prostate, 5.08 µM; in the assay on SNB-75 CNS, 0.423 µM. For the same compound, the GI50 with SR leukemia was 0.291 µM.

As to `CCOC1Oc2ccc(C)cc2C(=O)/C1=C\Nc1ccc(S(N)(=O)=O)cc1` (stereo unspecified), the GI50 in the assay with ACHN renal was 12.6 µM; in the assay on HS 578T breast, 14.5 µM; with MDA-MB-231 breast it was 11.7 µM; with MDA-MB-435, 10 µM; in the assay with NCI-H460 lung, 17 µM; in the assay with OVCAR-3 ovarian, 12.5 µM. The GI50 was 16.6 µM in the assay on PC-3 prostate, 16.1 µM with SF-268 CNS, 18.5 µM in the assay with SNB-75 CNS and 9.23 µM in the assay on SR leukemia. Besides, the TGI in the assay on ACHN renal is 45 µM; in the assay with HS 578T breast, 42.6 µM; in the assay with MDA-MB-231 breast, 35.5 µM; with MDA-MB-435, 23.8 µM; in the assay on NCI-H460 lung, above 50 µM; with OVCAR-3 ovarian it was 36.5 µM. For the same compound, the TGI with PC-3 prostate, in the assay on SF-268 CNS, in the assay with SNB-75 CNS and in the assay on SR leukemia was above 50 µM in each case.
